According to patent publication US20120295920A1, “5-AMINO-4-HYDROXYPENTOYL AMIDES” (priority 2009, published 2012):
Read-outs that look alike come from different tables or passages of the source.

What was measured:
HIV-1 wild-type strain = assay: General antiviral assay, cell-based virus replication in MT4-LTR-EGFP cells, wild-type strain; settings: Human immunodeficiency virus 1; wild-type strain IIIB, MT4-LTR-EGFP cells
Outline: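 HIV LTR-driven EGFP reporter MT4 cells (150,000 cells/ml) infected at MOI 0.0025 with or without inhibitor at various concentrations. Read-out either GFP fluorescence on day 3 post-infection or resazurin cell viability on day 4.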

[1] = General toxicity assay on mock-infected MT4 cells with CMV-EGFP reporter (CC50); format: cell-based; settings: human
HIV-1 IIIB = assay: 50% HS-Rezazurin: antiviral assay in the presence of 50% human serum, MT-4 cells, resazurin cell viability; format: cell-based; settings: Human immunodeficiency virus 1, IIIB, MT4, 96 h
Outline: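 MT-4 cells infected with HIV-1 IIIB (MOI 0.001 to 0.01 CCID50/cell) for 1 h, washed, then plated onto serial compound dilutions in 50% human serum (10% FCS alternative). After 4 days, EC50 derived from resazurin cell viability.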

[2] = tested on: HIV-1 Strain A (M046I, I084V); assay: microbe, parasite or virus in culture; format: cell-based; settings: Human immunodeficiency virus 1, read-out: A EC50
Outline: (§1)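 MT4 cells stably carrying an HIV LTR-driven EGFP reporter (150,000 cells/ml) were infected at MOI 0.0025 with or without inhibitor dilutions. Replication was read either as GFP fluorescence on day 3 post-infection or as cell viability by resazurin on day 4.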

[3] = tested on: HIV-1 Strain B (M046I, I050V); assay: microbe, parasite or virus in culture; format: cell-based; settings: Human immunodeficiency virus 1, read-out: B EC50
Outline: as §1

[4] = tested on: HIV-1 Strain C (G048G/V, V082A); assay: microbe, parasite or virus in culture; format: cell-based; settings: Human immunodeficiency virus 1, read-out: C EC50
Outline: as §1

[5] = MT4LTR cells, read-out: TOX-MT4LTR (CC50)
[6] = mock-infected MT4 cells with CMV-EGFP reporter, read-out: TOX-MT4CMV (CC50)

| SMILES | EC50 (HIV-1 wild-type strain) | CC50 [1, 5] | EC50 (HIV-1 IIIB) | EC50 [2] | EC50 [3] | EC50 [4] | melting point | CC50 [1, 6] |
| --- | --- | --- | --- | --- | --- | --- | --- | --- |
| COC(=O)N[C@H](C(=O)N[C@@H](Cc1ccc(-c2ccc(N(C)C)nc2)cc1)[C@@H](O)C[C@@H](Cc1ccccc1F)C(=O)N[C@H]1c2cc(F)cc(Cl)c2OC[C@H]1O)C(C)(C)C [Compound 52] | 1.8 nM | > 32000 nM | 6.2 nM | 1.2 nM | 0.9 nM | 0.7 nM | 255.44 °C | – |
| COC(=O)N[C@H](C(=O)N[C@@H](Cc1ccc(-c2ccc(OC)nc2)cc1)[C@@H](O)C[C@@H](Cc1ccccc1F)C(=O)N[C@H]1[C@H](C)CCC[C@H]1O)C(C)(C)C [Compound 96] | 0.9 nM | > 32000 nM | 2 nM | 0.7 nM | 0.4 nM | 0.5 nM | – | – |
| CNC(=O)[C@@H](NC(=O)[C@H](Cc1ccccc1F)C[C@H](O)[C@H](Cc1ccc(-c2ccc(N(C)C)nc2)cc1)NC(=O)[C@@H](NC(=O)OC)C(C)(C)C)C(C)(C)C [Compound 90] | 4.7 nM | – | 13.6 nM | 4.8 nM | 2.6 nM | 2.8 nM | – | > 32000 nM |
| COC(=O)N[C@H](C(=O)N[C@@H](Cc1ccc(-c2cc(C)nc(C)c2)cc1)[C@@H](O)C[C@@H](Cc1cccc(Cl)c1)C(=O)N[C@H]1c2ccccc2OC[C@H]1O)C(C)(C)C [Compound 4] | 5.6 nM | – | 31.2 nM | 3.9 nM | 3.9 nM | 2.7 nM | – | > 32000 nM |
| COC(=O)N[C@H](C(=O)N[C@@H](Cc1ccc(-c2ccc(OC)nc2)cc1)[C@@H](O)C[C@@H](Cc1ccccc1F)C(=O)N[C@H]1c2ccsc2CC[C@H]1O)C(C)(C)C [Compound 93] | 1.3 nM | > 32000 nM | 3.5 nM | 0.8 nM | 0.6 nM | 0.4 nM | – | > 32000 nM |
| CN(C)c1ccc(-c2ccc(C[C@H](NC(=O)O[C@H]3CO[C@H]4OCC[C@H]43)[C@@H](O)C[C@@H](Cc3ccccc3F)C(=O)N[C@H]3c4cc(Cl)ccc4OC[C@H]3O)cc2)cn1 [Compound 79] | 1.7 nM | > 32000 nM | 12.8 nM | 1.1 nM | 1 nM | 0.7 nM | – | – |
| CN(C)c1ccc(-c2ccc(C[C@H](NC(=O)[C@@H](NC(=O)C3(C#N)CC3)C(C)(C)C)[C@@H](O)C[C@@H](Cc3ccccc3F)C(=O)N[C@H]3c4cc(F)ccc4OC[C@H]3O)cc2)cn1 [Compound 53] | 2.3 nM | > 32000 nM | 9.5 nM | 4.1 nM | 2 nM | 2 nM | – | – |
| COC(=O)N[C@H](C(=O)N[C@@H](Cc1ccc(-c2ccc(OC)nc2)cc1)[C@@H](O)C[C@@H](Cc1cccc(OC(F)(F)F)c1)C(=O)N[C@H]1c2cc(F)ccc2OC[C@H]1O)C(C)(C)C [Compound 64] | 2.6 nM | > 32000 nM | 15.1 nM | 3 nM | 1.6 nM | 1.3 nM | – | – |
| COC(=O)N[C@H](C(=O)N[C@@H](Cc1ccc(-c2cnc(C(C)C)s2)cc1)[C@@H](O)C[C@@H](Cc1ccccc1F)C(=O)N[C@H]1c2ccccc2OC[C@H]1O)C(C)(C)C [Compound 38] | 7.1 nM | – | 37.9 nM | 4.4 nM | 3.6 nM | 2.6 nM | – | 10000 nM |
